{
  "source": "patent US10702534B2",
  "about": "“Compositions and methods relating to the radioprotective effects of apilimod” (priority 2017, dated 2020)",
  "system": "acutely irradiated mice",
  "test": "Prevention of radiation-induced mortality in mice after 8.5 Gy total body irradiation (survival analysis)",
  "format": "in vivo, C57B1/6 male mice",
  "text": "Eighty-six (86) C57B1/6 male mice were randomized into 6 groups. Group 1 (n=6) served as the untreated control group (no apilimod dimesylate or radiation). Animals in Groups 2-6 (n=16/group) were exposed to an 8.5 Gy dose of total body irradiation on Day 0. Radiation was generated with a 160 kilovolt potential (18-ma) source at a focal distance of 25 cm, hardened with a 0.35 mm A1 filtration system. Irradiation targeted the total body at a rate of approximately 1.0 Gy/minute. The total radiation dose and dose rate was measured in real time with a Farmer-type ionization chamber and a Fluke 35040 ATD dosimeter. No anesthesia was used during irradiation. Animals were monitored for survival twice daily and those that lost greater than 30% of their total starting body weight were euthanized. Animals in Groups 2 through 6 were dosed with apilimod dimesylate or vehicle exactly 3 hrs prior to radiation on Day 0 via oral gavage (PO) or intraperitoneal injection (IP) as indicated in Table 1 below. All animals were given ad libitum access to acidified drinking (pH 2.8-3.0) water from Day 3 through study completion.",
  "data": [
    {"smiles": "Cc1cccc(/C=N/Nc2cc(N3CCOCC3)nc(OCCc3ccccn3)n2)c1", "note": "[apilimod dimesylate]", "values": [
      {"measurement": "percentage of surviving animals", "setting": "60 mg/kg i.p. single dose 3 hrs prior to 8.5 Gy TBI, study to Day 31, vehicle 6.25%", "result": 43.75, "unit": "%"},
      {"measurement": "median time of survival", "setting": "60 mg/kg i.p. single dose 3 hrs prior to 8.5 Gy TBI, vehicle 13.5 days", "result": 21, "unit": "days"},
      {"measurement": "survival (survival analysis, in words)", "setting": "180 mg/kg p.o. single dose 3 hrs prior to 8.5 Gy TBI, did not reach statistical significance", "result": "trend towards increased survival"},
      {"measurement": "survival protection (survival analysis, in words)", "setting": "delivered by intraperitoneal injection, 60 mg/kg, 3 hrs prior to 8.5 Gy TBI", "result": "significant survival protection"}
    ]}
  ]
}
